Tests used:
[1] = test system: p53-deleted MLL fusion gene (MLL-AF9) leukemia cells; assay: Mouse acute myelogenous leukemia model, MLL-AF9 leukemia cells with the p53 gene deleted (Test Example 2); assay type: in vivo
Procedure: (§1) Hereinafter, Test examples 1 and 2 will be described. Test Example 1 and 2 were carried out with reference to J Clin Invest., 2013 Sep. 3, 123(9): 3876 to 3888; and Blood, 1 Sep. 2011, Volume 118, 2541 to 2550.
In the case where the survival period was extended depending on the function of a p53 gene, there is a concern that clinical usefulness may be limited. For this reason, the MLL fusion gene (MLL-AF9) leukemia cells were prepared in the same manner as in Test Example 1 by using mice in which the p53 gene was deleted.

[2] = test system: MLL fusion gene (MLL-AF9) leukemia cells; assay: Mouse acute myelogenous leukemia model with MLL fusion gene (MLL-AF9) introduced (Test Example 1); assay type: in vivo
Procedure: as §1
A mouse acute myelogenous leukemia (AML) model into which the MLL fusion gene (MLL-AF9) inducing cancer was introduced, was prepared. Specifically, bone marrow cells were collected from a C57BL/6-Ly5.1 mouse (Sankyo Labo Service Corporation, INC., hereinafter the same applies), and hematopoietic stem precursor cells were isolated using CD117 MicroBeads. MLL-AF9 marked with GFP (green fluorescent protein) was introduced into these cells using a virus. This MLL-AF9-introduced cells were transplanted to the same strain (C57BL/6) mouse (Japan SLC, Inc., hereinafter the same applies), and GFP-positive leukemia cells were collected from the mouse spleens that developed leukemia. These cells were subjected to second, third, and fourth transplantations, and after the fourth transplantation, MLL fusion gene (MLL-AF9) leukemia cells causing all the mice to develop leukemia in about 2 weeks were collected.
These MLL fusion gene (MLL-AF9) leukemia cells 1×10^6/mouse were injected into the C57BL/6 mouse from the tail vein. On day 4 after the day of injection, 0.5% methylcellulose suspension of 5-hydroxy-1H-imidazole-4-carboxamide-3/4 hydrate (medicine) was administered orally to the mouse once per day at 160 mg/kg (in terms of free base) on Monday (day 4), Wednesday (day 6), and Friday (day 8), and this administration was continued during the survival period of the mouse.

[3] = test system: leukemia associated with MLL (MLL-ENL); conditions: FIG. 3 and FIG. 5 of Genes & development, Vol. 23, pp. 877 to 889, 2009; cited from earlier work

SMILES | longest survival in medicine-administered group (FIG. 3) [1] | survival period of medicine-administered group (FIG. 3) ([1]; control mice died in less than 20 days) | proliferation of GFP+ cells in the peripheral blood (FIG. 4) ([1]; day 19 after injection of leukemia cells) | survival period versus non-administered group, p53-deleted leukemia cells ([1]; same manner as Test Example 1) | longest survival in medicine-administered group (FIG. 1) ([2]; 160 mg/kg orally Mon/Wed/Fri from day 4) | survival period of medicine-administered group (FIG. 1) ([2]; 160 mg/kg orally Mon/Wed/Fri from day 4, control mice all died in about 20 days) | survival period versus non-administered group ([2]; C57BL/6 mouse, 1x10^6 MLL-AF9 leukemia cells via tail vein, 160 mg/kg (free base) orally once per day Mon/Wed/Fri from day 4, log-rank test significant) | proliferation of GFP+ cells in the peripheral blood (FIG. 2) ([2]; day 10 after injection of leukemia cells, Mann-Whitney's U test significant versus control) | efficacy of existing chemotherapy in leukemia associated with MLL [3]
NC(=O)c1nc[nH]c1O [5-hydroxy-1H-imidazole-4-carboxamide-3/4 hydrate] | ≥ 40 days | ≥ 20 days | proliferation of GFP+ cells was suppressed | extension of the survival period according to the present invention does not depend on the p53 gene | up to 40 days | ≥ 30 days | significant extension of the survival period | proliferation of GFP+ cells was suppressed | 
Nc1ccn([C@@H]2O[C@H](CO)[C@@H](O)[C@@H]2O)c(=O)n1 [cytarabine] |  |  |  |  |  |  |  |  | not effective
COc1cccc2c1C(=O)c1c(O)c3c(c(O)c1C2=O)C[C@@](O)(C(=O)CO)C[C@@H]3O[C@H]1C[C@H](N)[C@H](O)[C@H](C)O1 [doxorubicin] |  |  |  |  |  |  |  |  | not effective
